Data: the supplement of paper PMC10307832

Assays:
Assay in all cases: relative viability (nuclei count vs DMSO), 5 days (fraction); higher = more cells survive
Tipifarnib + Crizotinib = compound: Cn1cncc1[C@@](N)(c1ccc(Cl)cc1)c1ccc2c(c1)c(-c1cccc(Cl)c1)cc(=O)n2C [Tipifarnib] + C[C@@H](Oc1cc(-c2cnn(C3CCNCC3)c2)cnc1N)c1c(Cl)ccc(F)c1Cl [Crizotinib] (partner 1 µM)
Summary of the method: (§1)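 Lung cancer cell lines were pin-tool dosed in 1536-well plates on the day after seeding, with either a lone drug or a fixed anchor-drug dose plus five library-drug doses (not always all listed) in √10 steps. Nuclei were counted on 4× images after 5 days. Relative viability is the ratio of treated-well to vehicle-well nuclei counts, with each value a median of duplicate plates.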

Tipifarnib + Phenformin = compound: Cn1cncc1[C@@](N)(c1ccc(Cl)cc1)c1ccc2c(c1)c(-c1cccc(Cl)c1)cc(=O)n2C [Tipifarnib] + N=C(N)NC(=N)NCCc1ccccc1 [Phenformin] (partner 250 µM)
Summary of the method: as §1

Tipifarnib + Navitoclax = compound: Cn1cncc1[C@@](N)(c1ccc(Cl)cc1)c1ccc2c(c1)c(-c1cccc(Cl)c1)cc(=O)n2C [Tipifarnib] + CC1(C)CCC(c2ccc(Cl)cc2)=C(CN2CCN(c3ccc(C(=O)NS(=O)(=O)c4ccc(N[C@H](CCN5CCOCC5)CSc5ccccc5)c(S(=O)(=O)C(F)(F)F)c4)cc3)CC2)C1 [Navitoclax] (partner 0.5 µM)
Summary of the method: as §1

Tipifarnib + Decitabine = compound: Cn1cncc1[C@@](N)(c1ccc(Cl)cc1)c1ccc2c(c1)c(-c1cccc(Cl)c1)cc(=O)n2C [Tipifarnib] + Nc1ncn([C@H]2C[C@H](O)[C@@H](CO)O2)c(=O)n1 [Decitabine] (partner 2 µM)
Summary of the method: as §1

| Cell Line | relative viability (Tipifarnib + Crizotinib; first compound 0.01 µM) | relative viability (Tipifarnib + Crizotinib; first compound 0.03162 µM) | relative viability (Tipifarnib + Crizotinib; first compound 0.1 µM) | relative viability (Tipifarnib + Crizotinib; first compound 0.3162 µM) | relative viability (Tipifarnib + Crizotinib; first compound 1 µM) | relative viability (Tipifarnib + Phenformin; first compound 0.01 µM) | relative viability (Tipifarnib + Phenformin; first compound 0.03162 µM) | relative viability (Tipifarnib + Phenformin; first compound 0.1 µM) | relative viability (Tipifarnib + Phenformin; first compound 0.3162 µM) | relative viability (Tipifarnib + Phenformin; first compound 1 µM) | relative viability (Tipifarnib + Navitoclax; first compound 0.01 µM) | relative viability (Tipifarnib + Navitoclax; first compound 0.03162 µM) | relative viability (Tipifarnib + Navitoclax; first compound 0.1 µM) | relative viability (Tipifarnib + Navitoclax; first compound 0.3162 µM) | relative viability (Tipifarnib + Navitoclax; first compound 1 µM) | relative viability (Tipifarnib + Decitabine; first compound 0.01 µM) | relative viability (Tipifarnib + Decitabine; first compound 0.03162 µM) | relative viability (Tipifarnib + Decitabine; first compound 0.1 µM) | relative viability (Tipifarnib + Decitabine; first compound 0.3162 µM) | relative viability (Tipifarnib + Decitabine; first compound 1 µM) |
| --- | --- | --- | --- | --- | --- | --- | --- | --- | --- | --- | --- | --- | --- | --- | --- | --- | --- | --- | --- | --- |
| NCI-H2085 | 0.685 | 0.446 | 0.433 | 0.414 | 0.469 | 0.777 | 0.442 | 0.433 | 0.385 | 0.532 | 0.862 | 0.788 | 0.546 | 0.611 | 0.514 | 0.558 | 0.59 | 0.519 | 0.493 | 0.536 |
| NCI-H2087 | 0.529 | 0.534 | 0.268 | 0.438 | 0.377 | 0.463 | 0.38 | 0.298 | 0.294 | 0.222 | 0.918 | 0.559 | 0.407 | 0.411 | 0.467 | 0.348 | 0.262 | 0.259 | 0.205 | 0.206 |
| NCI-H2126 | 0.977 | 1.01 | 1.02 | 0.924 | 0.904 | 0.56 | 0.532 | 0.517 | 0.49 | 0.435 | 0.888 | 0.822 | 0.845 | 0.74 | 0.709 | 0.576 | 0.582 | 0.578 | 0.519 | 0.53 |
| NCI-H2170 | 1.33 | 1.04 | 1.1 | 0.857 | 0.644 | 0.439 | 0.418 | 0.389 | 0.379 | 0.343 | 0.733 | 0.566 | 0.448 | 0.433 | 0.338 | 0.533 | 0.441 | 0.465 | 0.43 | 0.412 |
| NCI-H2347 | 0.53 | 0.546 | 0.57 | 0.476 | 0.486 | 0.474 | 0.405 | 0.501 | 0.318 | 0.315 | 0.782 | 0.576 | 0.643 | 0.627 | 0.598 | 0.593 | 0.553 | 0.581 | 0.527 | 0.521 |
| NCI-H2405 | 0.896 | 0.827 | 0.837 | 0.804 | 0.712 | 0.384 | 0.371 | 0.374 | 0.415 | 0.361 | 1.01 | 0.86 | 0.961 | 0.8 | 0.537 | 0.783 | 0.688 | 0.721 | 0.683 | 0.73 |
| NCI-H3122 | 0.281 | 0.217 | 0.249 | 0.256 | 0.254 | 0.413 | 0.419 | 0.419 | 0.356 | 0.228 | 1.02 | 0.95 | 0.857 | 0.675 | 0.782 | 0.414 | 0.407 | 0.415 | 0.397 | 0.308 |
| PC-3 [JPC-3] | 1.04 | 0.928 | 0.88 | 0.828 | 0.709 | 0.513 | 0.44 | 0.458 | 0.399 | 0.377 | 0.814 | 0.648 | 0.749 | 0.532 | 0.416 | 0.866 | 0.872 | 0.828 | 0.644 | 0.648 |
| PC-14 | 0.928 | 0.834 | 0.748 | 0.469 | 0.43 | 0.512 | 0.494 | 0.282 | 0.239 | 0.128 | 1.05 | 0.847 | 0.658 | 0.482 | 0.51 | 0.223 | 0.183 | 0.221 | 0.189 | 0.145 |
| RERF-LC-KJ | 0.794 | 0.847 | 0.754 | 0.633 | 0.713 | 0.447 | 0.401 | 0.392 | 0.366 | 0.339 | 1.14 | 0.931 | 0.61 | 0.467 | 0.46 | 0.848 | 0.691 | 0.733 | 0.451 | 0.478 |
| SK-LU-1 | 0.932 | 0.665 | 0.667 | 0.639 | 0.657 | 0.528 | 0.324 | 0.307 | 0.275 | 0.283 | 0.779 | 0.488 | 0.435 | 0.25 | 0.405 | 0.728 | 0.627 | 0.706 | 0.594 | 0.59 |
| SK-MES-1 | 0.974 | 0.864 | 0.95 | 0.69 | 0.656 | 0.659 | 0.663 | 0.651 | 0.619 | 0.57 | 1.3 | 1.11 | 0.866 | 0.785 | 0.655 | 0.465 | 0.336 | 0.35 | 0.421 | 0.33 |
| SW 1573 | 0.767 | 0.701 | 0.462 | 0.317 | 0.316 | 0.362 | 0.299 | 0.268 | 0.156 | 0.197 | 1.05 | 0.678 | 0.49 | 0.407 | 0.331 | 0.6 | 0.411 | 0.322 | 0.33 | 0.268 |
| UMC-11 | 0.24 | 0.278 | 0.224 | 0.181 | 0.184 | 0.332 | 0.311 | 0.303 | 0.251 | 0.238 | 0.263 | 0.211 | 0.235 | 0.191 | 0.194 | 0.569 | 0.53 | 0.524 | 0.322 | 0.405 |
